Reference: US4626523A, “GRF analogs II” (The Salk Institute for Biological Studies, priority 1985, dated 1986)
Square brackets hold non-standard residues; d marks the D form. Ends that are not written are not given here. Peptide text beside a SMILES is read from it. NMeY = CN[C@@H](Cc1ccc(O)cc1)C(=O)O; NMeF = CN[C@@H](Cc1ccccc1)C(=O)O; Nle = CCCC[C@H](N)C(=O)O

What was measured:
[1] = test system: cells of rat pituitary glands; experiment: in vitro GH release assay in cultured rat pituitary cells, side-by-side with hpGRF(1-40)-OH standard; format: cell-based; details: for Comparison % (GH release relative to hpGRF(1-40)-OH standard): equimolar concentrations, incubation 3 to 4 hours, immunoreactive GH in culture medium by radioimmunoassay, hpGRF(1-40)-OH = 100%
Procedure: To determine the effectiveness of the various synthetic peptides to promote the release of growth hormone, in vitro assays are carried out using synthetic hpGRF(1-40)--OH as a standard in side-by-side comparison with equimolar concentrations of the various other analogs and fragments synthesized. Cultures are used which include cells of rat pituitary glands removed some three to five days previously. Cultures which are considered optimal for the secretion of growth hormone are used for the comparative testing, in the general manner described in Vale et al. Endocrinology , 91, 562-572 (1972) and as more particularly described in Vale et al. Endocrinology, (1983), in press. Incubation with the substance to be tested is carried out for 3 to 4 hours, and aliquots of the culture medium are removed and processed to measure their contents in immunoreactive GH(ir GH) by a well-characterized radioimmunoassay.

[2] = test system: secretion of pituitary GH; experiment: in vivo GH secretion in freely running normal male rats pretreated with FLA-63; parameters: species or system rat; details: injection through indwelling catheter, blood samples prior to and 5 and 20 minutes after injection
Procedure: In addition to the in vitro tests for secretion of growth hormone, in vivo experiments inject the synthetic peptides through an indwelling catheter into freely running normal male rats after pretreating them with FLA-63, a dopamine hydroxylase inhibitor that suppresses spontaneous GH secretion without affecting the response to exogenous GRF. Blood samples are taken through the same catheter immediately prior to and 5 and 20 minutes after injections. […] Dosages between about 100 nanograms and about 50 micrograms per Kg. of body weight are considered to be effective in causing secretion.

Compound: CCCC[C@H](NC(=O)[C@@H](NC(=O)[C@H](CCC(=O)O)NC(=O)[C@H](Cc1c[nH]cn1)NC(=O)[C@H](CC(C)C)NC(=O)[C@H](CC(C)C)NC(=O)[C@H](CCCCN)NC(=O)[C@H](CCCNC(=N)N)NC(=O)[C@H](C)NC(=O)[C@H](Cc1ccc(O)cc1)NC(=O)[C@H](CC(C)C)NC(=O)[C@H](CCC(N)=O)NC(=O)CNC(=O)[C@H](CC(C)C)NC(=O)[C@@H](NC(=O)[C@H](CCCNC(=N)N)NC(=O)[C@H](CCCNC(=N)N)NC(=O)[C@H](Cc1ccc(O)cc1)NC(=O)[C@H](CO)NC(=O)[C@H](CO)NC(=O)[C@@H](NC(=O)[C@H](Cc1ccccc1)NC(=O)[C@@H](NC(=O)[C@H](C)NC(=O)[C@H](CC(=O)O)NC(=O)[C@H](C)NC(=O)[C@H](Cc1ccc(O)cc1)NC)[C@@H](C)CC)[C@@H](C)O)[C@@H](C)CC)[C@@H](C)CC)C(=O)N[C@@H](CC(N)=O)C(=O)N[C@@H](CCCNC(=N)N)C(N)=O [[N^a MeTyr^1, Nle^27]-rhGRF(1-29)-NH2, H-N^a MeTyr-Ala-Asp-Ala-Ile-Phe-Thr-Ser-Ser-Tyr-Arg-Arg-Ile-Leu-Gly-Gln-Leu-Tyr- Ala-Arg-Lys-Leu-Leu-His-Glu-Ile-Nle-Asn-Arg-NH2] (H-[NMeY]ADAIFTSSYRRILGQLYARKLLHEI[Nle]NR-NH2)
- Comparison % (GH release relative to hpGRF(1-40)-OH standard) [1]: 1130%

Compound: CC[C@H](C)[C@H](NC(=O)[C@H](C)NC(=O)[C@H](CC(=O)O)NC(=O)[C@H](C)NC(=O)[C@H](Cc1ccccc1)NC)C(=O)N[C@@H](Cc1ccccc1)C(=O)N[C@H](C(=O)N[C@@H](CC(N)=O)C(=O)N[C@@H](CO)C(=O)N[C@@H](Cc1ccc(O)cc1)C(=O)N[C@@H](CCCNC(=N)N)C(=O)N[C@@H](CCCCN)C(=O)N[C@H](C(=O)N[C@@H](CC(C)C)C(=O)NCC(=O)N[C@@H](CCC(N)=O)C(=O)N[C@@H](CC(C)C)C(=O)N[C@@H](CO)C(=O)N[C@@H](C)C(=O)N[C@@H](CCCNC(=N)N)C(=O)N[C@@H](CCCCN)C(=O)N[C@@H](CC(C)C)C(=O)N[C@@H](CC(C)C)C(=O)N[C@@H](CCC(N)=O)C(=O)N[C@@H](CC(=O)O)C(=O)N[C@H](C(=O)N[C@@H](CCSC)C(=O)N[C@@H](CO)C(=O)N[C@@H](CCCNC(=N)N)C(=O)N[C@@H](CCC(N)=O)C(=O)N[C@@H](CCC(N)=O)C(=O)NCC(N)=O)[C@@H](C)CC)C(C)C)[C@@H](C)O [[N^a MePhe^1]-hpGRF(1-32)-NH2] (H-[NMeF]ADAIFTNSYRKVLGQLSARKLLQDIMSRQQG-NH2)
- Comparison % (GH release relative to hpGRF(1-40)-OH standard) [1]: 12%
- maximum effective concentration ([1]; in vitro, rat pituitary cell cultures): 5 to 10 nM
- duration of GH-releasing action compared with hpGRF(1-32)-NH2 [2]: substantially longer duration that hpGRF(1-32)-NH2
- stimulation of secretion of pituitary GH (GH levels in blood) ([2]; radioimmunoassay): powerful stimulators of the secretion of pituitary GH

Compound: H-C^a MePhe(4Cl)-Ala-Asp-Ala-Ile-Phe-Thr-Asn-Ser-Tyr-Arg-Lys-Val-Leu-Gly-Gln-Leu-Ser-Ala-Arg-Lys-Leu-Leu-Gln-Asp-Ile-Met-Ser-Arg-Gln-Gln-Gly-NH2 [[C^a Me/4Cl-Phe^1]-hpGRF(1-32)-NH2]
- Comparison % (GH release relative to hpGRF(1-40)-OH standard) [1]: 5%

Compound: hpGRF(1-40)-OH (YADAIFTNSYRKVLGQLSARKLLQDIMSRQQGESNQERGA-OH; UniProt P01286 32-71, looked up, fragment) [synthetic human pancreas GH releasing factor fragment used as standard in the in vitro assay, reference compound]
- Comparison % (GH release relative to hpGRF(1-40)-OH standard) [1]: 100%

Compound: CC[C@H](C)[C@H](NC(=O)[C@H](C)NC(=O)[C@H](CC(=O)O)NC(=O)[C@H](C)NC(=O)[C@H](Cc1ccc(O)cc1)NC)C(=O)N[C@@H](Cc1ccccc1)C(=O)N[C@H](C(=O)N[C@@H](CC(N)=O)C(=O)N[C@@H](CO)C(=O)N[C@@H](Cc1ccc(O)cc1)C(=O)N[C@@H](CCCNC(=N)N)C(=O)N[C@@H](CCCCN)C(=O)N[C@H](C(=O)N[C@@H](CC(C)C)C(=O)NCC(=O)N[C@@H](CCC(N)=O)C(=O)N[C@@H](CC(C)C)C(=O)N[C@@H](CO)C(=O)N[C@@H](C)C(=O)N[C@@H](CCCNC(=N)N)C(=O)N[C@@H](CCCCN)C(=O)N[C@@H](CC(C)C)C(=O)N[C@@H](CC(C)C)C(=O)N[C@@H](CCC(N)=O)C(=O)N[C@@H](CC(=O)O)C(=O)N[C@H](C(=O)N[C@@H](CCSC)C(=O)N[C@@H](CO)C(=O)N[C@@H](CCCNC(=N)N)C(=O)N[C@@H](CCC(N)=O)C(=O)N[C@@H](CCC(N)=O)C(=O)NCC(N)=O)[C@@H](C)CC)C(C)C)[C@@H](C)O [[N^a MeTyr^1]hpGRF(1-32)-NH2, H-N^a MeTyr-Ala-Asp-Ala-Ile-Phe-Thr-Asn-Ser-Tyr-Arg-Lys-Val-Leu-Gly-Gln-Leu-Ser- Ala-Arg-Lys-Leu-Leu-Gln-Asp-Ile-Met-Ser-Arg-Gln-Gln-Gly-NH2]
- Comparison % (GH release relative to hpGRF(1-40)-OH standard) [1]: 184%
